Results reported in patent US20260240158A1, “MICROBIOCIDAL THIAZOLE DERIVATIVES” (SYNGENTA CROP PROTECTION AG, priority 2019, published 2026).
Read-outs that look alike come from different tables or passages of the source.

Assays:
[1] = test system: Mycosphaerella graminicola (Septoria tritici); test: Mycosphaerella graminicola (Septoria tritici) / liquid culture (Septoria blotch); assay type: cell-based; conditions: Zymoseptoria tritici, read-out: control of Mycosphaerella graminicola
[2] = test system: Phaeosphaeria nodorum (Septoria nodorum); test: Phaeosphaeria nodorum (Septoria nodorum) / wheat / leaf disc preventative (glume blotch); assay type: in vivo; conditions: 200 ppm, 5-7 days after application, vs untreated control
Description: Phaeosphaeria Nodorum (Septoria nodorum)/Wheat/Leaf Disc Preventative (Glume Blotch) Wheat leaf segments cv. […] The leaf disks are inoculated with a spore suspension of the fungus 2 days after application. […] P3.

[3] = test system: Pyrenophora teres; test: Pyrenophora teres / barley / leaf disc preventative (net blotch); assay type: in vivo; conditions: 200 ppm, 5-7 days after application, vs untreated control
Description: Pyrenophora teres/Barley/Leaf Disc Preventative (Net Blotch) Barley leaf segments cv. […] The leaf segments are inoculated with a spore suspension of the fungus 2 days after application. […] P5.

[4] = 20 ppm, liquid culture, growth inhibition photometrically 4-5 days after application, vs untreated control

Row | Structure (SMILES) | inhibition of growth at 20 ppm [1, 4] | other results
1 | CCCCNC(=O)c1nc(Nc2cnsc2)sc1C [Compound P1, N-butyl-2-(isothiazol-4-ylamino)-5-methyl-thiazole-4-carboxamide] | ≥ 80% | –
2 | Cc1sc(Nc2cnsc2)nc1C(=O)NCC(C)(C)C [Compound P2, N-(2,2-dimethylpropyl)-2-(isothiazol-4-ylamino)-5-methyl-thiazole-4-carboxamide] | ≥ 80% | –
3 | Cc1sc(Nc2cnsc2)nc1C(=O)NCCC(C)C [Compound P3, N-isopentyl-2-(isothiazol-4-ylamino)-5-methyl-thiazole-4-carboxamide] | ≥ 80% | control of Phaeosphaeria nodorum [2]: at least 80%
4 | Cc1sc(Nc2cnsc2)nc1C(=O)NC(C)c1ccccc1 (stereo not shown) [Compound P4, 2-(isothiazol-4-ylamino)-5-methyl-N-(1-phenylethyl) thiazole-4-carboxamide] | ≥ 80% | –
5 | Cc1sc(Nc2cnsc2)nc1C(=O)NC1CCC12CCCC2 (stereo not shown) [Compound P5, 2-(isothiazol-4-ylamino)-5-methyl-N-spiro 3.4 octan-3-yl-thiazole-4-carboxamide] | ≥ 80% | control of Pyrenophora teres [3]: at least 80%
6 | Cc1sc(Nc2cnsc2)nc1C(=O)NC1CCC1(C)C (stereo not shown) [Compound P6, N-(2,2-dimethylcyclobutyl)-2-(isothiazol-4-ylamino)-5-methyl-thiazole-4-carboxamide] | – | inhibition of growth at 20 ppm [1]: ≥ 80%
7 | COCC(=O)N(c1cnsc1)c1nc(C(=O)NC2CCC23CCCC3)c(C)s1 (stereo not shown) [Compound P8, 2-isothiazol-4-yl-(2-methoxyacetyl) amino-5-methyl-N-spiro 3.4 octan-3-yl-thiazole-4-carboxamide] | ≥ 80% | –
8 | Cc1sc(N(C#N)c2cnsc2)nc1C(=O)NC1CCC12CCCC2 (stereo not shown) [Compound P9, 2-cyano(isothiazol-4-yl)amino-5-methyl-N-spiro 3.4 octan-3-yl-thiazole-4-carboxamide] | ≥ 80% | –
